Here are results for five compounds from ChEMBL document CHEMBL1201862, “PubChem BioAssay data set” (2004).

The source made the active and inactive calls.

Experiment [1] concerns Vero. Description: host cell cytotoxicity of antiviral hits, dose response, cytotoxicity control for West Nile virus antiviral project, secondary assay (AID 1650). Format: functional. Conditions: Chlorocebus sabaeus.
Experiment [2] concerns Vero. The experiment in a line: West Nile virus antiviral activity, cell-based, CPE readout (AID 1621). Format: functional. The conditions noted are these: Chlorocebus sabaeus.
Experiment [3] deals with HEK293. Description: cells. The experiment is classed as functional, cell-based. The conditions noted are these: Homo sapiens.
For experiment [4], the system named is BJ. Description: cells. The conditions noted are these: Homo sapiens. Format: functional, cell-based.
A further experiment relates to Streptococcus. The experiment in a line: Group A Streptococcus viability loss, dose response, counter-screen for streptokinase expression inhibitor project, luminescence, BacTiterGlo (AID 1915).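 Note: potency for reduction of bacterial viability or growth.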 Format: functional, organism-based. For orientation: Counterscreens check selectivity or assay interference.
The nature of experiment [5]: control 3'UTR Renilla luciferase suppression, dose response, counter-screen for Shn3 inhibitor project, cell-based, Clone20-Shn3RL, cherry-picked (AID 624133). The experiment is classed as functional.
For experiment [6], the system named is HEK293. Description: NOD2 signaling inhibitors in MDP-stimulated cells, cell-based, uHTS, luminescence (AID 2001). The experiment is classed as functional. The conditions noted are these: Homo sapiens.
Experiment [7] concerns HEK293. The experiment in a line: NOD1 signaling inhibitors, primary screen, cell-based, luminescence, uHTS (AID 1578). Format: functional. The conditions noted are these: Homo sapiens.
Experiment [8] deals with BJ. Description: cytotoxicity toward BJ-TERT fibroblasts, dose response, cell-based, RAS-independent, luminescence (AID 1933). The experiment is classed as functional. Conditions: Homo sapiens.
A short description of experiment [9]: Luminescence-based dose response cell-based high throughput screening assay for cytotoxic compounds using the IEC-6 intestinal epithelial cell line. [Related pubchem assays: 1858 (Summary AID.), 1825 (Counterscreen.), 1907 (Confirmation screen.)]. The experiment is classed as functional.
Experiment [10] is described as follows: inhibitors of intracellular T. cruzi replication, confirmation, NIH3T3 host cells, beta-gal luminescence (AID 2044).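 Note: intracellular parasites grown in NIH/3T3 mouse fibroblasts as host cells; luminescent beta-galactosidase reporter signal from transgenic T. cruzi replicating inside host cells; inhibitors lower the luminescence signal.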 The experiment is classed as functional, cell-based.
Experiment [11] relates to HEK293. Description: cells. The experiment is classed as functional, cell-based. The conditions noted are these: Homo sapiens. The source holds these as a separate data set.
Experiment [12] has as its target Nucleotide-binding oligomerization domain-containing protein 2 (Homo sapiens, UniProt Q9HC29). Description: NOD2 signaling inhibitors, cell-based, luminescence, uHTS, HEK293 (AID 1566). The experiment is classed as functional.
Experiment [13] in a line: cytotoxicity toward NIH3T3 fibroblasts, dose response, counter-screen, cell-based, ATP luminescence, mouse fibroblasts (AID 2010).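 Note: cells exposed to compound for about 90 hours before reading.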 The experiment is classed as functional.
Experiment [14] is described as follows: Shn3 3'UTR reporter inhibitors, dose response, cell-based, Clone20 osteoblasts, firefly luciferase, cherry-picked (AID 624132).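 Note: firefly luciferase luminescence from reporter carrying the Shn3 3'UTR in osteoblasts.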 The experiment is classed as functional.
A short description of experiment [15]: HepG2 cell cytotoxicity, dose response, cytotoxicity control for Shn3 inhibitor project, CellTiter-Glo, cherry-picked (AID 624134). Format: functional, cell-based. On the technique in general: In ATP-based viability assays light output follows the ATP content of the culture.
The nature of experiment [16]: cytotoxicity toward DRD oncogenic fibroblasts, dose response, cell-based, non-viral oncogenic, luminescence (AID 1934). The experiment is classed as functional. The conditions noted are these: Homo sapiens.
The test system of experiment [17] is HEK293. Description: inhibitors of LMP1-driven NF-kB reporter, dose response, cell-based, HEK293, luciferase, cherry-pick (AID 588343). The experiment is classed as functional. Conditions: Homo sapiens.
For experiment [18], the system named is BJ. The experiment in a line: cytotoxicity toward BJ-TERT-LT-ST fibroblasts, dose response, cell-based, RAS-independent, luminescence (AID 1935).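 Note: BJ fibroblasts immortalized with TERT plus LT and ST oncogenes.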 The experiment is classed as functional. The conditions noted are these: Homo sapiens.
A short description of experiment [19]: cells. The experiment is classed as functional, cell-based.
Experiment [20] deals with HEK293. Description: cells. Format: functional, cell-based. Conditions: Homo sapiens. The source holds these as a separate data set.
Experiment [21] is described as follows: cells. The experiment is classed as functional, cell-based. This is another data set of the same source.
Experiment [22] relates to Streptococcus sp. 'group A'. The experiment in a line: growth inhibition of control SK(-) GAS strain, dose response, counter-screen for streptokinase expression inhibitor project, luminescence, kanamycin, BacTiterGlo, confirmation (AID 1900). The experiment is classed as functional, organism-based.
Experiment [23] concerns the target T1, Aryl hydrocarbon receptor (Homo sapiens, UniProt P35869).
T1 sequence (P35869 whole entry): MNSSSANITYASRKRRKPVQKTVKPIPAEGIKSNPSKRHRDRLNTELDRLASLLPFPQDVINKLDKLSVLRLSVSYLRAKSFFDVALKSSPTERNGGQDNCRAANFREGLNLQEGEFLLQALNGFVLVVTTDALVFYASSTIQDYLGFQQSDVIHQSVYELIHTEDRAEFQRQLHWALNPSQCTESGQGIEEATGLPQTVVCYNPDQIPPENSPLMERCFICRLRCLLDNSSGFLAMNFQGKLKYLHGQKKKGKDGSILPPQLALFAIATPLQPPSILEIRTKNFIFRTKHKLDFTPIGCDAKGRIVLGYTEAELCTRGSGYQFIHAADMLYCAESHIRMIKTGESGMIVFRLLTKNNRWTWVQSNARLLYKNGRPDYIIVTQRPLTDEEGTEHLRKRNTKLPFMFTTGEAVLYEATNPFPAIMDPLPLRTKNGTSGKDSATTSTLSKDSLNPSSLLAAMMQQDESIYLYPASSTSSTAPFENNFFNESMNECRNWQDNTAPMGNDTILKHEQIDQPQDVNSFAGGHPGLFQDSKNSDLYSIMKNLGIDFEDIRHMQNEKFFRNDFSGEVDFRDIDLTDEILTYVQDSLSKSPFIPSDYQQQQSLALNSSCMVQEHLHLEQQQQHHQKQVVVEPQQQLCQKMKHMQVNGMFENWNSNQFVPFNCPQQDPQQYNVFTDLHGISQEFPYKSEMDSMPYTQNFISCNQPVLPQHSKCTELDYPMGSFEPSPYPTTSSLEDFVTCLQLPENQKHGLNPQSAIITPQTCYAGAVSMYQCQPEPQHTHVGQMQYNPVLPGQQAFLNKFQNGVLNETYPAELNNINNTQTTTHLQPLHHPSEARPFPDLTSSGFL
Description: Luminescence-based cell-based high throughput dose response assay for activators of the Aryl Hydrocarbon Receptor (AHR). [Related pubchem assays: 2796 (Primary screen (AHR activators in singlicate)), 2845 (Confirmation screen (AHR activators in triplicate)), 434939 (Counterscreen (PXR activators in triplicate)), 2804 (Summary (AHR activators))]. Format: ADME.

Experiment [24] in a line: cells.
Experiment [25] has as its system HEK293. The experiment in a line: cells. The conditions noted are these: Homo sapiens.
A further experiment concerns the target Galanin receptor type 2 (Homo sapiens, UniProt O43603). The experiment in a line: Dose Response cell-based high-throughput screening assay to identify antagonists of galanin receptor 2 (GALR2). [Related pubchem assays: 828, 866 ]. Format: functional.
In experiment [26] the test system is HEK293. Description: cells. The conditions noted are these: Homo sapiens. The source holds these as a separate data set.

Nucleotide-binding oligomerization domain-containing protein 2, sequence (Q9HC29 whole entry, the tested form may be a part): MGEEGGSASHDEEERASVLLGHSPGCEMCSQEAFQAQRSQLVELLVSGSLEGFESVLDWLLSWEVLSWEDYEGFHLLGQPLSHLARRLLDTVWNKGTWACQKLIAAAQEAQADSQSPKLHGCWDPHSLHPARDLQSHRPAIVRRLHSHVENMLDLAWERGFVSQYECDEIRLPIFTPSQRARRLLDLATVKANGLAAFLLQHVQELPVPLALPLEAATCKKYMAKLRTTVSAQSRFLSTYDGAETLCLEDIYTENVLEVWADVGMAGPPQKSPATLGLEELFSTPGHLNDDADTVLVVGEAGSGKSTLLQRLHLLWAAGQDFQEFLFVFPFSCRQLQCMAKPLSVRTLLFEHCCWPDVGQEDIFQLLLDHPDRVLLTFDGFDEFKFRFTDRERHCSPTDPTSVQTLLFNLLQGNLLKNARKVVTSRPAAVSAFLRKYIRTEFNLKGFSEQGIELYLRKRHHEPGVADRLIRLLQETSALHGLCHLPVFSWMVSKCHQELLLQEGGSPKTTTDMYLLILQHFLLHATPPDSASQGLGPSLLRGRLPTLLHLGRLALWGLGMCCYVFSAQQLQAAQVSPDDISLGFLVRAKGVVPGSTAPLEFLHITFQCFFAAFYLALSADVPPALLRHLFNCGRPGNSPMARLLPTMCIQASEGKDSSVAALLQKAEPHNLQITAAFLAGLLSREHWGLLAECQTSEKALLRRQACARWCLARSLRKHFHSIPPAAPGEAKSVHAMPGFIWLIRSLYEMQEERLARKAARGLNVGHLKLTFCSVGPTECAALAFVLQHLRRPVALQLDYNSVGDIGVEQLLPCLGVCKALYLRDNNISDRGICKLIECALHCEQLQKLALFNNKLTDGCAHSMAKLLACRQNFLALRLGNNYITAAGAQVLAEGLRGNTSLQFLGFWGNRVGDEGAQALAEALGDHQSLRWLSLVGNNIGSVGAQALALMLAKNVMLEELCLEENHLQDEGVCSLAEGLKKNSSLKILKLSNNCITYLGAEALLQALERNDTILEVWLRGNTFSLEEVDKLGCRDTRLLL
Galanin receptor type 2, sequence (O43603 whole entry): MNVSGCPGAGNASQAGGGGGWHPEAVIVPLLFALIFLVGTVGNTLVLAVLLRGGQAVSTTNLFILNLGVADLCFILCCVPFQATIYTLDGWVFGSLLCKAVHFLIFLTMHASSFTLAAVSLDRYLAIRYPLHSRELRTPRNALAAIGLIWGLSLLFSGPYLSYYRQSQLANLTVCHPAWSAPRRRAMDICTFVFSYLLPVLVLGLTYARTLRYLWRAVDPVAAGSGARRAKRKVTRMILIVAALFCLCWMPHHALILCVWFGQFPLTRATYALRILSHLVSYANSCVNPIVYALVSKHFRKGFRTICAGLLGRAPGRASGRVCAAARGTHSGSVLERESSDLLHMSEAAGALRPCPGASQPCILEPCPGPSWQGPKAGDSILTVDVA

The term CC50 denotes the concentration at which the toxic effect on the cells reaches its halfway point. As a reminder, the IC50 is the point on the concentration scale where inhibition reaches its midpoint. Regarding `CN(C)CCCNC(=O)c1cc2sc3ccccc3c2s1`, in the experiment with Vero [1], the CC50 is 14.6 µM (active). Further, the IC50 in the experiment with Vero [2] is 21.4 µM (active).

For orientation: EC50 means the midpoint of the concentration-response curve. As usually defined, the AC50 is the midpoint of the concentration-response curve, whichever way the signal moves. `CC(=O)NC(c1ccc(Cl)cc1Cl)c1ccc2cccnc2c1O` (stereo not given): the IC50 with HEK293 [3] was > 20 µM (inactive); in the experiment with HEK293 [6], > 20 µM (inactive); in experiment [9], 386 nM (active); in the experiment with HEK293 [11] it was 12 µM (active); with HEK293 [20], > 20 µM (inactive). Besides, the EC50 was 6.93 µM (active) with BJ [4]; 6.93 µM (active) in the experiment on Streptococcus; > 20 µM (inactive) in the experiment with HEK293 [7]; 837 nM (active) with BJ [8]; 163 nM (active) in experiment [10]; > 20 µM (inactive) in experiment [12]. Besides, the EC50 was 0.192 µM (active) in experiment [13]; 950 nM (active) in experiment [16]; 2.82 µM (inconclusive) in the experiment on BJ [18]; > 350 µM (not active) in the experiment “cells [19]”; 4.6 µM (active) in “cells [21]”; 4.98 µM (active) in experiment [22]. Also, the AC50 in experiment [5] was 778 nM (active); in [14], 465 nM (active); in [15] it was 764 nM (active); in the experiment on HEK293 [17], 4.24 µM (active).

Regarding `COc1ccccc1NC(=O)c1ccc2c(c1)nnn2C`, the EC50 in [23] is 195 nM (active).

`O=C1NC(=O)N(C2CCCCCC2)C(=O)/C1=C/NC1CCN(Cc2ccccc2)CC1`: the figures for the EC50 (in “cells [24]”; in experiment [10]; in experiment [13]) were 361 nM (active), < 100 nM (active) and 23.5 µM (active), respectively.

As for `CN(C(S)=NC1CCCCC1)C1(c2ccccc2Cl)CCCCC1=O` (stereo not given), the EC50 with HEK293 [25] and in the experiment on HEK293 [26] was > 59.6 µM (inactive) throughout. Further, at Galanin receptor type 2, the IC50 was > 42 µM (not active).
